Measurements as given in patent publication US20250064724A1, “MODULAR FIELD-STABLE BIO-ARTIFICIAL BLOOD SUBSTITUTE” (VIRGINIA COMMONWEALTH UNIVERSITY, priority 2021, published 2025).

What was measured:
[1] = test system: nitric oxide synthase (NOS); settings: cited from earlier work; for blockade of the L-Arginine effect in crystalloid resuscitation: competitive NOS inhibitors
shocked rats [2] = assay: Example 3: PEG-20 k and delayed or nitric oxide modified HBOC in rodent lethal hemorrhagic shock; type: in vivo, rat; settings: Example 3, present tense
Description: Rats are bled to 35 mmHg and held there until lactate reaches 9-10 mM, at which time, LVR solutions are given to resuscitate them. Thirty minutes after resuscitation, another 10% blood volume is removed and the plasma component is immediately separated and given back. A loop of distal ileum is exposed and a 1 cm enterotomy is made along the anti-mesenteric border to access the mucosal surface for hourly recordings of capillary blood flow by Orthogonal Polarization Spectral Imaging (OPSI) and for biopsies of bowel mucosa at various times before. The biopsies are used for histological analysis and for nitric oxide metabolism studies ex-vivo in a tissue culture system.
The albumin solution is a control for both the protein and oncotic effects of the HBOC per se and for the delayed volume administration at 2 and 4 hours after the initial PEG-20 k resuscitation. The total volume infusions for these studies is maintained at 6.8 ml/kg to remain in the low volume range (10% estimated blood volume). All surgical preparations are sterile so any animals surviving after 5 hours from resuscitation can be recovered the next day. N=10 rats per group. […]
In both Part 1 and Part 2, the primary measured outcomes include the rate of oxygen debt repayment on the first operative day and the re-accumulation of new oxygen debt the following days in rats that survive the initial 5-hour intra-operative observation period. […] Other secondary outcomes measured in each experiment include MAP, blood labs, intestinal microcirculation measured with orthogonal polarization spectral imaging (OPSI) through a small enterotomy in the distal ileum, plasma Th1 cytokines, terminal bowel histology analysis, and subject survival time. Finally, local tissue production of nitric oxide, nitrosothiols, and nitric oxide metabolites is assessed from serial bowel mucosa biopsies using incubations of tissue in a Dubanoff metabolic incubator and a Sievers-Style chemiluminescence NO analyzer.

anesthetized rats [3] = settings: 300 mg/kg L-Arginine with 6.8 ml/kg HBOC-201 IV, listed as L-Arg
Description: This hypertension is believed due to the local scavenging of nitric oxide in the vessel wall. As the normal vasodilator tone produced by basal nitric oxide is removed by the HBOC hemoglobin, the vasoconstrictor tone now prevails and the blood pressure rises secondary to vasoconstriction of the resistance vessels.
Studies were designed to test how nitric oxide substrate loading before HBOC prevents or attenuates the NO scavenging effects of the HBOC on physiological, biochemical, and survival outcomes.

anesthetized rats [4] = settings: literature reference (22); cited from earlier work
shocked rats [5] = assay: Example 4: fibrinogen add back after PEG-20 k resuscitation, controlled and uncontrolled hemorrhage in rats; type: in vivo, rat; settings: fibrinogen after PEG-20 k IV solution, controlled or uncontrolled hemorrhagic shock
Description: Changes in coagulation and platelet function is measured in the controlled lethal shock model in adult anesthetized rats in groups that receive PEG-20 k IV solution alone and those that receive PEG-20 k IV solution and supplemental human fibrinogen (200 mg/kg, IV, in 300 μl LR). The control group also receives 300 ul LR without RiaSTAP®. Samples of whole rat blood (1.0-ml) are taken at baseline and at various times after resuscitation for thromboelastography (TEG) analysis of coagulation and platelet function. Other assays are done to measure fibrinogen levels, intrinsic and extrinsic coagulation pathway coagulation, and platelet mapping studies are conducted to answer some mechanistic questions about platelet function defects. Samples are collected out to 4 hours, which is the time when coagulation and platelet function begins to return to baseline levels after PEG-20 k resuscitation. Each group uses 10 adult Sprague-Dawley rats.
Coagulation and platelet function outcomes are tested by using a clinically relevant model of mixed polytrauma hemorrhagic shock that involves severe bleeding from both controllable and uncontrollable sources. Our lab has developed a rodent model of severe hemorrhagic shock where tail bleeding (controlled source) is combined with blood loss from an abdominal penetrating injury to the spleen (splenic laceration). […]

[6] = test system: platelet IIb/IIIa receptor; settings: in vivo
Description: The hypocoagulable state and functional hypofibrinogenemia that exists immediately after severe blood loss and PEG-20 k resuscitation is mitigated by the concurrent addition of reconstituted lyophilized human fibrinogen (RiaSTAP®). The effects of severe blood loss after hemorrhage leads to direct depletion of clotting factors including fibrinogen. Furthermore, resuscitation with PEG-20 k IV solution causes rapid and long acting volume expansion by the osmotic movement of isotonic fluid from the intracellular and interstitial spaces back into the intravascular space, which further dilutes fibrinogen concentrations. […] Together, these forces tend to dilute out plasma fibrinogen concentrations that likely contribute to both the transient hypocoagulable state and the functional hypofibrinogenemia seen after PEG-20 k resuscitation in severe blood loss. Therefore, it makes sense that a simple add back of fibrinogen to the system after PEG-20 k IV solution resuscitation will correct the defect and improve coagulation and platelet function. […]
Changes in coagulation and platelet function is measured in the controlled lethal shock model in adult anesthetized rats in groups that receive PEG-20 k IV solution alone and those that receive PEG-20 k IV solution and supplemental human fibrinogen (200 mg/kg, IV, in 300 μl LR). […]

For `N=C(N)NCCC[C@@H](N)C(=O)O` (racemic) [D-Arginine], the “blockade of the L-Arginine effect in crystalloid resuscitation” value [1] is given as “blocked” and the “blockade of the L-Arginine effect with HBOC” value (shocked rats [2]) is given as “this effect is blocked”.

For `N=C(N)NCCC[C@H](N)C(=O)O` [L-Arginine], the “effect of co-administered L-Arginine on the blood pressure response to HBOC” value (anesthetized rats [3]) is listed as “caused vasodilatation that caused the blood pressure to drop”, the “crystalloid resuscitation outcome with L-Arginine” value ([1]; severe hemorrhagic shock, earlier work of the lab (20)) is listed as “dramatically improved” and the “resuscitation outcome with L-Arginine before HBOC” value (shocked rats [2]; after PEG-20 k) is listed as “Improvements are seen”.

In the case of `COC(=O)[C@@H](N)CCCNC(=N)N[N+](=O)[O-]` [L-NAME, L-Nitro Arginine Methyl Ester], the “reversal of the L-Arg blood pressure effect by nitric oxide synthetase inhibitor” value (anesthetized rats [4]) is given as “reversal”, the “blockade of the L-Arginine effect in crystalloid resuscitation” value [1] is given as “blocked” and the “blockade of the L-Arginine effect with HBOC” value (shocked rats [2]) is given as “this effect is blocked”.

With fibrinogen the “coagulation outcomes, bleeding times and volumes” value (shocked rats [5]) was “reduces bleeding” and the “coagulation outcomes, bleeding times and volumes” value (shocked rats [5]; listed as concentrated fibrinogen) was “significantly improves coagulation outcomes and decreases uncontrolled bleeding times and volumes”.

In the case of polyethylene glycol [PEG-20 k], the “coagulopathy on TEG” value [6] is reported as “minor coagulopathy on TEG” and the “time when coagulation and platelet function begins to return to baseline levels” value [6] is reported as 4 h.
